For ten compounds, IC50 and EC50 results are on record in patent US11572362B2, “Pyrrolo[1,2-b]pyridazine derivatives” (Gilead Sciences, Inc., priority 2018, dated 2023).

One experiment has as its target IRAK4 (Homo sapiens (Human), UniProt Q9NWZ3). As to the kind of experiment: IRAK4 Biochemical Assay (TR-FRET/HTRF). Particulars: IRAK4 enzyme 0.75 nM, 500 μM ATP, 2 μM STK1 peptide, 120 min. Summed up: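 Recombinant IRAK4 (0.75 nM) with 2 µM STK1 peptide and 500 µM ATP in pH 7.0 HEPES/Mg buffer; compound preincubated 15 min with enzyme and peptide, then 120 min reaction at room temperature. HTRF readout: cryptate anti-phospho-peptide antibody, 665/615 nm ratio; % inhibition against no-inhibitor and saturating-staurosporine controls.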
On the technique in general: Time-resolved FRET reads energy transfer from a long-lived donor to a nearby acceptor.

In the next experiment the test system is TNFα. As to the kind of experiment: IRAK4 Monocyte TNFα Cell Based Assay. Particulars: cryopreserved human monocytes, 50 pg/ml LPS, compound 1 hour pre-treatment, 4 hours stimulation, TNFα by TR-FRET. Summed up: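 Monocytes at 5,000 cells/well were pre-treated with compound for 1 h at 37 °C (0.1% DMSO final), then stimulated with 50 pg/ml LPS for 4 h. Secreted TNFα in supernatant was measured by TR-FRET (665/615 ratio), expressed as % control relative to unstimulated and stimulated cells.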

By IC50 is commonly meant the concentration that gives 50% inhibition. Read a low IC50 as inhibition by little substance. What is called EC50 is the concentration needed to bring the measured effect to its halfway point.

Sequence of IRAK4 (Q9NWZ3 whole entry): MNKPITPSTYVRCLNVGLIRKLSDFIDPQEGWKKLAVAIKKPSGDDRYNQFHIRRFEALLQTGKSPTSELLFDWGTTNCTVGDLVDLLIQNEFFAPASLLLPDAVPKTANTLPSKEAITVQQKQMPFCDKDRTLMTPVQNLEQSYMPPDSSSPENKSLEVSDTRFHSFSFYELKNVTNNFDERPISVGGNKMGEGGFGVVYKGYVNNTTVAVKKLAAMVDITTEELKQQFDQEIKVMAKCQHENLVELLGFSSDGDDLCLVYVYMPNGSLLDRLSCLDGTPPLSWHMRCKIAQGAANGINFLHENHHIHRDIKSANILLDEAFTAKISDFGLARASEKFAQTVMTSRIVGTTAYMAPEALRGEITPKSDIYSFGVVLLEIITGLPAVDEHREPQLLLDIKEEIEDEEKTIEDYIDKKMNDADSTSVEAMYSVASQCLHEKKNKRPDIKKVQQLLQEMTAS

In turn, `Cc1nn(C(F)F)cc1C1CCC(Nc2cc(-c3ccc4cc(C#N)cnn34)ncc2C(=O)NC[C@@H](F)C(C)(C)O)CC1` (stereo partly drawn) [Compound 9, (R)-6-(3-cyanopyrrolo[1,2-b]pyridazin-7-yl)-4-((4-(1-(difluoromethyl)-3-methyl-1H-pyrazol-4-yl)cyclohexyl)amino)-N-(2-fluoro-3-hydroxy-3-methylbutyl)nicotinamide] came in with an IC50 against IRAK4 of 7 nM. Moreover, in the experiment with TNFα (Monocyte), the EC50 was found to be 114 nM.

Consider `CC(C)(O)[C@H](F)CNC(=O)c1cnc(-c2ccc3cc(C#N)cnn23)cc1N[C@H]1CC[C@H](c2nc(C(F)F)co2)CC1` [Compound 46, 6-(3-cyanopyrrolo[1,2-b]pyridazin-7-yl)-4-(((1r,4R)-4-(4-(difluoromethyl)oxazol-2-yl)cyclohexyl)amino)-N-((R)-2-fluoro-3-hydroxy-3-methylbutyl)nicotinamide], for which, on IRAK4, half-maximal inhibition (IC50) was put at 2 nM. Also, in the experiment on TNFα (Monocyte), the EC50 was 124 nM.

`Cc1nnc(C23CCC(Nc4cc(-c5ccc6cc(C#N)cnn56)ncc4C(=O)NC[C@@H](F)C(C)(C)O)(CC2)CO3)o1` [Compound 64, (R)-6-(3-cyanopyrrolo[1,2-b]pyridazin-7-yl)-N-(2-fluoro-3-hydroxy-3-methylbutyl)-4-((1-(5-methyl-1,3,4-oxadiazol-2-yl)-2-oxabicyclo[2.2.2]octan-4-yl)amino)nicotinamide] yielded an IC50 at IRAK4 of under 1 nM. Also, in the experiment with TNFα (Monocyte), the EC50 stood at 19 nM.

At IRAK4, `CC(C)(O)[C@H](F)CNC(=O)c1cnc(-c2ccc3cc(C#N)cnn23)cc1N[C@H]1CC[C@H](n2cc(C#N)cn2)CC1` [Compound 24, 4-(((1r,4R)-4-(4-cyano-1H-pyrazol-1-yl)cyclohexyl)amino)-6-(3-cyanopyrrolo[1,2-b]pyridazin-7-yl)-N-((R)-2-fluoro-3-hydroxy-3-methylbutyl)nicotinamide] gave an IC50 of under 1 nM. The EC50 with TNFα (Monocyte) stood at 19 nM.

As for `CC(C)(O)[C@H](F)CNC(=O)c1cnc(-c2ccc3cc(C#N)cnn23)cc1N[C@H]1CC[C@H](c2cn(C(F)F)cn2)CC1` [Compound 17, 6-(3-cyanopyrrolo[1,2-b]pyridazin-7-yl)-4-(((1r,4R)-4-(1-(difluoromethyl)-1H-imidazol-4-yl)cyclohexyl)amino)-N-((R)-2-fluoro-3-hydroxy-3-methylbutyl)nicotinamide], the IC50 against IRAK4 came to 1 nM. Further, in the experiment with TNFα (Monocyte), the EC50 stood at 33 nM.

With `CC(C)(O)[C@H](F)CNC(=O)c1cnc(-c2ccc3cc(C#N)cnn23)cc1N[C@H]1CC[C@H](c2cc(C(F)F)no2)CC1` [Compound 47, 6-(3-cyanopyrrolo[1,2-b]pyridazin-7-yl)-4-(((1r,4R)-4-(3-(difluoromethyl)isoxazol-5-yl)cyclohexyl)amino)-N-((R)-2-fluoro-3-hydroxy-3-methylbutyl)nicotinamide], at IRAK4, half-maximal inhibition (IC50) required 2 nM. Also, in the experiment with TNFα (Monocyte), the EC50 is 89 nM.

With `Cc1ncoc1[C@@H]1CCC[C@@H](Nc2cc(-c3ccc4cc(C#N)cnn34)ncc2C(=O)NC[C@@H](F)C(C)(C)O)C1` [Compound 48, 6-(3-cyanopyrrolo[1,2-b]pyridazin-7-yl)-N-((R)-2-fluoro-3-hydroxy-3-methylbutyl)-4-(((1R,3R)-3-(4-methyloxazol-5-yl)cyclohexyl)amino)nicotinamide], on IRAK4, the IC50 was 10 nM. Moreover, in the experiment on TNFα (Monocyte), the EC50 amounted to 1050 nM.

At IRAK4, `CC(C)(O)[C@H](F)CNC(=O)c1cnc(-c2ccc3cc(C#N)cnn23)cc1NC1CCC(c2cnc(C(F)F)s2)CC1` (stereo partly drawn) [Compound 51, (R)-6-(3-cyanopyrrolo[1,2-b]pyridazin-7-yl)-4-((4-(2-(difluoromethyl)thiazol-5-yl)cyclohexyl)amino)-N-(2-fluoro-3-hydroxy-3-methylbutyl)nicotinamide] registered an IC50 of 3 nM. Further, the EC50 in the experiment with TNFα (Monocyte) was 76 nM.

In turn, `CC(C)(O)[C@H](F)CNC(=O)c1cnc(-c2ccc3cc(C#N)cnn23)cc1N[C@H]1CC[C@H](c2nnn(C(F)F)n2)CC1` [Compound 72, 6-(3-cyanopyrrolo[1,2-b]pyridazin-7-yl)-4-(((1r,4R)-4-(2-(difluoromethyl)-2H-tetrazol-5-yl)cyclohexyl)amino)-N-((R)-2-fluoro-3-hydroxy-3-methylbutyl)nicotinamide] returned a half-inhibitory concentration (IC50) against IRAK4 of 0.639 nM. For the same compound, the EC50 in the experiment on TNFα amounted to 31.3 nM.

With `Cc1ncc(C2CCC(Nc3cc(-c4ccc5cc(C#N)cnn45)ncc3C(=O)NC[C@@H](F)C(C)(C)O)CC2)cn1` (stereo partly drawn) [Compound 58, (R)-6-(3-cyanopyrrolo[1,2-b]pyridazin-7-yl)-N-(2-fluoro-3-hydroxy-3-methylbutyl)-4-((4-(2-methylpyrimidin-5-yl)cyclohexyl)amino)nicotinamide], at IRAK4, half-maximal inhibition (IC50) was put at 4 nM. In addition, the EC50 in the experiment with TNFα (Monocyte) was determined as 112 nM.
